“Also recorded” adds a separate entry of the source.
Assays:
Assay type in all cases: cell-based
[1] = test system: acetylated p53 (at lysine 382) in NCI-H460 cells; experiment: p53 acetylation (lysine 382) in etoposide-treated NCI-H460 cells, Western blot; settings: for acetylation of p53 (lysine 382) by enantiomers: 6 hours, 20 micromolar etoposide, immunoprecipitation of p53
yeast sir2 = target: T1, yeast sir2 (Saccharomyces cerevisiae, UniProt P06700); experiment: yeast silencing assay (strain SL8c, URA at the telomere, 5FOA growth); settings: SD+0.1% 5FOA, 30° C., 18-24 hrs
T1 construct: endogenous in cells; host or cells: yeast strain SL8c (URA at the telomere)
T1 sequence (P06700 whole entry): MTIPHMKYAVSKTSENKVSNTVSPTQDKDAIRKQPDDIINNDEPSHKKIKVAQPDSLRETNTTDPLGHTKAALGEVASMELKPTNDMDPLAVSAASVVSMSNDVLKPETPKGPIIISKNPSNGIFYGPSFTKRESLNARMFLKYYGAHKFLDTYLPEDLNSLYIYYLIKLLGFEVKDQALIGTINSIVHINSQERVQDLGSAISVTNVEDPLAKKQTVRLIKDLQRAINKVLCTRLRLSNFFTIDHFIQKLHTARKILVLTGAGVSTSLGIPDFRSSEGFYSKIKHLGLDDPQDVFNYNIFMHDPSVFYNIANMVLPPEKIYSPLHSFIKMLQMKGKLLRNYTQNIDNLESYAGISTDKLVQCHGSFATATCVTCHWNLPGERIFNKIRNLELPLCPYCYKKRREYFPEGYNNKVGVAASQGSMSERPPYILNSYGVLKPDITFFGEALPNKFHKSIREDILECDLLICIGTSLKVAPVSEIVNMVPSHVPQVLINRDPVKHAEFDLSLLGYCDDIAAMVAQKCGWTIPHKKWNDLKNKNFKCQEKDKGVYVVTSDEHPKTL
Procedure: Strain SL8c (URA at the telomere) was used for yeast based assay to screen compounds. Cells were grown in -URA media to select de-silenced cells. The next day cells were diluted 1:20 into fresh YPD with 2% glucose then grow for 5 hrs. Cells were then diluted OD=0.01 in both SD and SD+0.1% 5FOA media. The compounds were then serially diluted into 10 ul of SD or SD+0.1% 5FOA medium. 140 ul of cells were pipetted into a 96 well plate and grown at 30° C. for 18-24 hrs.

GFP-hSIRT2 isoform 1 = target: T2, GFP-hSIRT2 isoform 1 (Homo sapiens, UniProt Q8IXJ6); experiment: acetylated tubulin staining in HeLa cells transfected with GFP-hSIRT2; settings: 1 μM TSA, 50 μM compound
T2 sequence (Q8IXJ6 1-389): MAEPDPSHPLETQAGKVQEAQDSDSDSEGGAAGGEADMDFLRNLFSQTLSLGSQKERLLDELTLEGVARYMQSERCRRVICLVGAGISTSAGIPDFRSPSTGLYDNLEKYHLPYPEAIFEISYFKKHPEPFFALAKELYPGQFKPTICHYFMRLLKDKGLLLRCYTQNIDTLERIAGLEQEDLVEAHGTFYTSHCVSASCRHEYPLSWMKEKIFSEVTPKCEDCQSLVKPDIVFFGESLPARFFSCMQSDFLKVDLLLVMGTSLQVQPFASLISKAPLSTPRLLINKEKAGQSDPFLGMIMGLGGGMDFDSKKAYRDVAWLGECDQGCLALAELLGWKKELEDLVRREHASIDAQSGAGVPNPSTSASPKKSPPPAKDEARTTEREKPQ
Description: HeLa cells were transfected with GFP-hSIRT2 isoform 1 (green). […] The next morning cells were fixed, permeabilized, and stained for acetylated tubulin (red).

[2] = test system: acetylated lysine 382 of p53 in U20S cells; experiment: p53 acetylation (lysine 382) in etoposide-treated U20S cells; settings: 20 micromolar etoposide, 6 hours
HeLa cell = experiment: HeLa apoptosis assay (Cell Death Detection ELISA plus kit)
Procedure: The following exemplary compounds were evaluated for their effect on a HeLa cell apoptosis assay using the Cell Death Detection ELISA plus kit from Roche Applied Science.

NCI-H460 cells [3] = experiment: thymidine incorporation with etoposide and compound (cytostar plates); settings: NCI-H460, 1 micromolar compound, added concurrent to, prior to, and after etoposide
Procedure: Thymidine incorporation was measured at 24 hours intervals.

[4] = test system: acetylated lysine 382 of p53 in MCF7 cells; experiment: p53 acetylation (lysine 382) in etoposide-treated MCF7 cells; settings: MCF7, 20 micromolar etoposide, 6 hours
p27 in HEK293 cells = experiment: p27 protein immunoblot in serum starved HEK293 cells; settings: HEK293, serum starved 24 hrs
NCI-H460 cells [5] = experiment: cell survival after DNA damage with etoposide; settings: NCI-H460, varying concentrations of etoposide
Description: NCI-H460 cells were damaged with varying concentrations of etoposide in the presence or absence of SIRT1 inhibitors.

Structure (SMILES)	acetylation of p53 (lysine 382) by enantiomers [1]	effect on yeast cell growth / silencing (yeast sir2)	tubulin acetylation in cells expressing SIRT2 (GFP-hSIRT2 isoform 1)	inhibition of SIRT1 / P53 acetylation [2]	p53 acetylation (at lysine 382) after etoposide treatment ([1]; 20 uM etoposide, 1 uM and 10 uM equally effective, relative to DMSO)	average (HeLa apoptosis, Cell Death Detection ELISA) (HeLa cell; dose 0.5 (unit not given))	average (HeLa apoptosis, Cell Death Detection ELISA) (HeLa cell; dose 2.5 (unit not given))	average (HeLa apoptosis, Cell Death Detection ELISA) (HeLa cell; dose 10 (unit not given))	average (HeLa apoptosis, Cell Death Detection ELISA) (HeLa cell; dose 25 (unit not given))	synergy with etoposide on growth characteristics (thymidine incorporation) (NCI-H460 cells [3])	inhibition of SIRT1 / P53 acetylation [4]	serum starvation-mediated upregulation of p27 (p27 in HEK293 cells)	p53 function measured as cell survival after DNA damage (NCI-H460 cells [5])
NC(=O)C1CCCc2c1[nH]c1ccc(Cl)cc21 (single isomer, unassigned) [8(+), 6-Chloro-2,3,4,9-tetrahydro-1H-carbazole-1-carboxylic acid amide]	does not lead to increased acetylation of p53	no effect on cell growth											
NC(=O)C1CCCc2c1[nH]c1ccc(Cl)cc21 (centres unmarked) [Compound 8, 6-Chloro-2,3,4,9-tetrahydro-1H-carbazole-1-carboxylic acid amide]			the tubulin is more highly acetylated indicating that the effect of SIRT2 was blocked	competent to inhibit SIRT1 in a variety of cell lines with similar effects on P53 acetylation	increase p53 acetylation significantly relative to DMSO alone	1.23	1.85	2.11	2.27	no synergy between etoposide and compound 8	competent to inhibit SIRT1 in a variety of cell lines with similar effects on P53 acetylation	abrogation of serum starvation-mediated upregulation of the cell cycle inhibitor p27	did not modulate p53 function significantly
NC(=O)C1CCCc2c1[nH]c1ccc(Cl)cc21 (single isomer, unassigned) [8(−), 6-Chloro-2,3,4,9-tetrahydro-1H-carbazole-1-carboxylic acid amide]	significant increase in acetylation and stabilization of p53 protein	preferentially inhibits yeast sir2 relative to enantiomer 8(+); also recorded: inhibits SIRT1 and allows for expression of URA3 which blocks growth in the presence of 5-fluorouracil											
NC(=O)C1CCCc2c1[nH]c1ccccc21 (centres unmarked) [Compound 5, 2,3,4,9-Tetrahydro-1H-carbazole-1-carboxylic acid amide]						1.00	0.97	1.07	0.91				
Oc1ccc(/C=C/c2cc(O)cc(O)c2)cc1 [Resveratol, reference compound]						0.83	0.84	1.01	0.56				

— US8486990B2, “SirT inhibitors that bind to NAD” (Elixir Pharmaceuticals, Inc., priority 2003, dated 2013)
